PubChem BioAssay AID2765 (Broad Institute, 2010)
Active and inactive are the calls of the source.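 Rule for the calls: active = half-maximal concentration for the rise in caspase light signal at or below ten times the top tested dose; inconclusive = flat fit between 30% and 70% activity, or unreliable curve fit; inactive = the rest.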

system: MEF A1-2A-BIM cells, caspase 3/7 luminescence, 3 h; experiment: caspase activation in A1-2A-BIM MEF cells, dose response, A1 inhibitor project, cell-based, luminescence, retest (AID 2765)

Row | Compound | EC50
1 | Cc1ccc(/C=C/C(=O)c2ccc([N+](=O)[O-])o2)cc1 | > 35 µM (inactive)
2 | CCOCCOC(=O)c1[nH]c2c(c1C)C(=O)CC(c1cccs1)C2 (configuration not stated) | > 35 µM (inactive)
3 | CCCCN1C(=O)C(NC(C)=O)c2cc(Br)ccc21 (configuration not stated) | > 35 µM (inactive)
4 | OC(COc1ccc2ccccc2c1Br)Cn1ccnc1 (configuration not stated) | > 35 µM (inactive)
5 | COc1ccc2c(c1)c(=O)c(C(=O)c1ccc(F)cc1)cn2CC(=O)Nc1ccc(F)cc1 | > 35 µM (inactive)
6 | O=C(Nc1cccc(Cl)c1)c1ccc(OC(=S)N2CCOCC2)cc1 | > 35 µM (inactive)
7 | CCCN1C(=O)/C(=N\OCC(=O)NC23CC4CC(CC(C4)C2)C3)c2ccccc21 | > 35 µM (inactive)
8 | O=S1(=O)C=C(Sc2nc3cc(Cl)ccc3o2)c2ccccc21 | > 35 µM (inactive)
9 | Cc1cc(=O)[nH]c(SCC(=O)Nc2ccc(Br)cc2)c1C#N | > 35 µM (inactive)
10 | COc1ccc(CCNC(=O)C2CCCN2C(=O)Nc2ccc(Cl)cc2)cc1OC (configuration not stated) | > 35 µM (inactive)
11 | CCC(Sc1nc2cc3c(cc2c(=O)n1Cc1ccco1)OCO3)C(=O)Nc1cccc(OC)c1 (configuration not stated) | > 35 µM (inactive)
12 | CC(C)(C)C1C/C(=C/c2ccccn2)C(=O)/C(=C/c2ccccn2)C1 (configuration not stated) | 8.46 µM
13 | Cc1cccc(NC(=S)N(Cc2cccc(Br)c2)CC2CCC(C(=O)O)CC2)c1 (configuration not stated) | > 35 µM (inactive)
14 | CCN(C(=O)CCN1C(=O)c2ccccc2S1(=O)=O)c1ccccc1 | > 35 µM (inactive)
15 | CN(C)CCN(C(=O)/C=C/c1cccs1)c1nc2c(F)cc(F)cc2s1 | 36.1 µM
16 | O=C(CN1C(=O)c2ccccc2S1(=O)=O)NCCc1ccccc1 | > 35 µM (inactive)
17 | CC(C)(C)C#CC(CCc1ccccc1)OS(N)(=O)=O (configuration not stated) | > 35 µM (inactive)
18 | CCOC(=O)c1oc2ccccc2c1NC(=O)CN1CCN(C)CC1 | > 35 µM (inactive)
19 | CCCCNC(=O)c1ccc(Cn2c(=S)[nH]c3c([nH]c4ccc(OC)cc43)c2=O)cc1 | 5.24 µM
20 | C[C@H](CO)N1C[C@H](C)[C@@H](CN(C)C(=O)NC2CCCCC2)Oc2c(NS(=O)(=O)c3cn(C)cn3)cccc2C1=O | > 35 µM (inactive)
21 | Cc1noc(C)c1CSCC(=O)N(C)CC(=O)Nc1ccc(Cl)c(Cl)c1 | > 35 µM (inactive)
22 | Cc1cccc2c3c([nH]c12)CCN(C)C3 | > 35 µM (inactive)
23 | O=C(CN1CCN(Cc2ccccc2)CC1)Nc1ccc(Br)cc1 | > 35 µM (inactive)
24 | O=C(CS(=O)c1ccc(C(F)(F)F)cc1[N+](=O)[O-])Oc1ccccc1 (configuration not stated) | > 35 µM (inactive)
25 | CCS(=O)(=O)c1nc2ccccc2n1Cc1ccccn1 | > 35 µM (inactive)

Row | Compound | EC50
26 | COc1ccccc1C(=O)NCCC(=O)N1CCN(S(=O)(=O)c2ccc(Cl)cc2)CC1 | > 35 µM (inactive)
27 | Cc1c(C(=O)O)sc2nc(-c3cccs3)cc(C(F)(F)F)c12 | > 35 µM (inactive)
28 | CCN(C(=O)CSc1nc2ccccc2n1CC)C1CCS(=O)(=O)C1 (configuration not stated) | > 35 µM (inactive)
29 | COc1cc(NS(=O)(=O)c2cc(C(=O)NCCc3ccccn3)ccc2OC)cc(OC)c1 | > 35 µM (inactive)
30 | CC[C@H]1CN2CCc3cc(OC)c(OC)cc3[C@@H]2C[C@@H]1C[C@H]1NCCc2cc(OC)c(OC)cc21 | > 35 µM (inactive)
31 | Nc1nc(Cl)nc2c1ncn2[C@H]1C[C@H](O)[C@@H](CO)O1 | > 35 µM (inactive)
32 | COCCCNC(=O)c1cccc(S(=O)(=O)N2CC3(C)CC2CC(C)(C)C3)c1 (configuration not stated) | > 35 µM (inactive)
33 | C[C@H](NC(=O)OC(C)(C)C)C(=O)NCC1CCC(C(=O)N[C@@H](Cc2ccccc2)C(=O)O)CC1 (some centres not stated) | > 35 µM (inactive)
34 | Cc1ccc(N=C2C(=O)Nc3ccc(C)c(Br)c32)cc1 | > 35 µM (inactive)
35 | CCCc1ccc(OCc2ccc(C(=O)N/N=C/c3cccc([N+](=O)[O-])c3)o2)c(OC)c1 | 7.22 µM
36 | CC(=O)Nc1ncnc2c1c(-c1ccc(Cl)cc1)nn2C(C)(C)C | > 35 µM (inactive)
37 | CCOc1cccc(C2C(C(=O)c3ccc(C)o3)=C(O)C(=O)N2Cc2ccncc2)c1 (configuration not stated) | > 35 µM (inactive)
38 | O=C1C2C3C=CC(CO)(O3)C2C(=O)N1c1ccc(-c2ccccc2)cc1 (configuration not stated) | > 35 µM (inactive)
39 | COc1cc2c(c(OC)c1OC)-c1ccc(O)c(=O)cc1C(NC(C)=O)CC2 (configuration not stated) | > 35 µM (inactive)
40 | CCc1nnc(NC(=O)CSc2nc(-c3ccccc3)cc(-c3ccc(F)cc3)c2C#N)s1 | 24.2 µM
41 | Cc1ccc(C(=O)Nc2nnc(C3=COCCO3)o2)cc1C | > 35 µM (inactive)
42 | Cc1ccccc1[C@]1(C)ON(c2ccccc2C(F)(F)F)C1=O | > 35 µM (inactive)
43 | CCc1cc(C(=O)OCC(=O)N2CCC(c3ccccc3)=N2)sc1C | > 35 µM (inactive)
44 | COc1ccc(-c2ccc3c(c2)S(=O)(=O)c2cccc(C(=O)NC[C@@H]4CCCO4)c2C3=O)cc1OC | > 35 µM (inactive)
45 | O=C(CCC(=O)c1cccs1)OCC(=O)c1ccccc1 | > 35 µM (inactive)
46 | CCc1ccccc1NC(=O)C(CC)Sc1nc2cc3c(cc2c(=O)n1Cc1ccco1)OCO3 (configuration not stated) | > 35 µM (inactive)
47 | CC1COc2ccccc2N1C(=O)c1ccc(Cl)cc1 (configuration not stated) | > 35 µM (inactive)
48 | Clc1nc(NCc2ccco2)nc(N2CCCCC2)n1 | > 35 µM (inactive)
49 | COc1ccc(CCNC(=O)C2=COCCO2)cc1 | > 35 µM (inactive)
50 | Cc1cc(C(=O)N2CCN(c3ccc(F)cc3)CC2)on1 | > 35 µM (inactive)

Row | Compound | EC50
51 | CN1C(=O)[C@H]2[C@@H](C3CC3)N3C(=O)CN(Cc4ccc(-c5ccccc5)cc4)C(=O)[C@@]3(C)[C@H]2C1=O | > 35 µM (inactive)
52 | NC(=O)CCSC(=S)N1CCOCC1 | > 35 µM (inactive)
53 | COc1ccc(NC(=O)/C(Cl)=C(/Cl)S(=O)Cc2ccc(C)cc2)cn1 (configuration not stated) | > 35 µM (inactive)
54 | CCN(CC)CCSc1nnc2c3ccccc3n(Cc3ccccc3)c2n1 | > 35 µM (inactive)
55 | O=[N+]([O-])c1ccc(CN2CCOCCOCCOCC2)cc1 | > 35 µM (inactive)
56 | COc1ccc(S(=O)(=O)Nc2c(C)n(C)n(-c3ccccc3)c2=O)cc1 | > 35 µM (inactive)
57 | Cc1cc(C)cc(N=Cc2c(O)c3ccccc3oc2=O)c1 | > 35 µM (inactive)
58 | Cc1ccc(OCC(O)CN2CCN(CCO)CC2)c(C)c1 (configuration not stated) | > 35 µM (inactive)
59 | CC1Cc2cc(/C(O)=C3/C(=O)C(=O)N(Cc4cccnc4)C3c3cccc(O)c3)ccc2O1 (configuration not stated) | > 35 µM (inactive)
60 | CCCCCCC(=O)Nc1cc2c(C)cc(=O)oc2cc1C | > 35 µM (inactive)
61 | CS(=O)(=O)c1ncc(Cl)c(C(=O)Nc2ccc(N3CCOCC3)cc2)n1 | > 35 µM (inactive)
62 | Cc1cc(C)n(-c2nc(Nc3ccccc3C)nc(-n3nc(C)cc3C)n2)n1 | > 35 µM (inactive)
63 | CCCCc1ccc(S(=O)(=O)NC2CCS(=O)(=O)C2)cc1 (configuration not stated) | > 35 µM (inactive)
64 | CCOc1ccc(CNC2CCCCCCC2)cc1OC | > 35 µM (inactive)
65 | CC(NC(=O)c1cccc(OC2CCN(C3CCN(C)CC3)CC2)c1)c1ccccc1 (configuration not stated) | > 35 µM (inactive)
66 | COc1cccc(-c2cc(C(F)(F)F)c(C#N)c(=O)[nH]2)c1 | > 35 µM (inactive)
67 | C=CC[C@@H](CC(=O)N[C@@H](CO)Cc1ccccc1)C(=O)N[C@H](COC(=O)[C@H](CC=C)CC(=O)OC(C)(C)C)Cc1ccccc1 | > 35 µM (inactive)
68 | O=[N+]([O-])/C=C/c1ccc2c(ccn2Cc2ccccc2)c1 | 12.3 µM
69 | CC(=O)Nc1ccc(S(=O)(=O)NCCc2ccccn2)cc1 | > 35 µM (inactive)
70 | CC(C)(C)NC(=O)NC(=O)COC(=O)CNS(=O)(=O)/C=C/c1ccccc1 | > 35 µM (inactive)
71 | CC(C)(C)OC(=O)NCCc1nnc(S(=O)(=O)Cc2ccc(Cl)cc2Cl)o1 | > 35 µM (inactive)
72 | O=C(NCC1CCCO1)C1CCN(S(=O)(=O)c2ccc(Br)cc2)CC1 (configuration not stated) | > 35 µM (inactive)
73 | CS(=O)(=O)c1nc(-c2ccco2)cc(C(F)(F)F)n1 | > 35 µM (inactive)
74 | CCNC(=O)CN(c1ccc(Br)c(C)c1)S(C)(=O)=O | > 35 µM (inactive)
75 | NS(=O)(=O)c1ccc(NC(=O)CN2CCc3ccccc32)cc1 | > 35 µM (inactive)

Row | Compound | EC50
76 | Cc1ccc(S(=O)(=O)NCC(=O)OC2CCOC2=O)cc1 (configuration not stated) | > 35 µM (inactive)
77 | CC1CCCN(C(=O)CN2C(=O)C(C)Oc3ccccc32)C1 (configuration not stated) | > 35 µM (inactive)
78 | O=C(c1ccccc1Br)N(Cc1ccccc1)c1ccccc1 | > 35 µM (inactive)
79 | CCN(CC)CCCN=C(C)c1c(O)n(-c2ccc(C)cc2)c(=O)[nH]c1=O | > 35 µM (inactive)
80 | CC1(C)c2cc(O)ccc2OC1N1CCOCC1 (configuration not stated) | > 35 µM (inactive)
81 | O=C(NCc1ccccc1)c1ccc(C(=O)N(C2CCCCC2)C2CCCCC2)cc1 | > 35 µM (inactive)
82 | CC1Cc2ccccc2N1C(=O)C1CCN(S(=O)(=O)Cc2ccccc2)CC1 (configuration not stated) | > 35 µM (inactive)
83 | CSc1nc(N)c(N=Nc2ccc([As](=O)(O)O)cc2)c(=O)[nH]1 | > 35 µM (inactive)
84 | CCOc1ccc(OCC(=O)N(CCC2=CCCCC2)c2c(N)n(Cc3ccccc3)c(=O)[nH]c2=O)cc1 | 19.1 µM
85 | Cc1cc(N2CCN(c3ccccc3)CC2)nc(-c2ccccc2)n1 | > 35 µM (inactive)
86 | O=C(Nc1ccc2oc(-c3cccc(F)c3)nc2c1)c1ccccc1F | > 35 µM (inactive)
87 | COc1ccc(S(=O)(=O)N2CCCCC2C)cc1 (configuration not stated) | > 35 µM (inactive)
88 | Cc1ccc(NC(=O)c2ccc(N/N=C/c3cccc(O)c3)c([N+](=O)[O-])c2)cc1 | 21.5 µM
89 | COc1ccc(OC)c(S(=O)(=O)NC(C)c2ccc(-n3ccnc3)cc2)c1 (configuration not stated) | > 35 µM (inactive)
90 | Cc1cc(Br)c2c(c1)C1(OCCO1)C(=O)N2 | > 35 µM (inactive)
91 | O=C(Nc1ccc(N2CCN(C(=O)c3ccco3)CC2)cc1)c1cccs1 | > 35 µM (inactive)
92 | C[C@@]12C(=O)OC(=O)[C@]1(C)C1CCC2O1 | > 35 µM (inactive)
93 | Cc1ccc(C(=O)NCC(=O)OC(C)C(=O)Nc2ccc(N(C)C)cc2)s1 (configuration not stated) | > 35 µM (inactive)
94 | COc1ccc(OC)c(/C=C/C(=O)N(C)CC(=O)Nc2cc(C)ccc2C)c1 | > 35 µM (inactive)
95 | CCN(CC)c1ncnc2c1cnn2Cc1ccc(Cl)cc1 | > 35 µM (inactive)
96 | CCOC(=O)C(C(=O)OCC)C(C(=O)OCC)N1CCOCC1 (configuration not stated) | > 35 µM (inactive)
97 | O=C(COC(=O)c1ccccc1Br)NC1CCCCCCC1 | > 35 µM (inactive)
